Measurements taken from patent US20230165866A1, “CYCLOSERINE AND PENTOXIFYLLINE COMBINATION THERAPY FOR TREATMENT OF DEPRESSION” (NEURORIVE INC, priority 2020, published 2023).

Columns and labels:
[1] = test system: mice (C57BL/6); test: Forced swimming test (FST); assay type: in vivo, mouse; settings: C57BL/6 mice, oral; DCS alone 10 mg/kg, pentoxifylline alone 80 mg/kg, combination DCS 10 mg/kg + pentoxifylline 10, 20, 80, 160 mg/kg; FST an hour after administration; immobility time in last 4 min of 6 min
Description: In order to test an effect of reducing depression depending on administration of the composite composition of the present invention, mice were performed to a forced swimming test (FST). The FST, which is to measure a coping strategy for acute stress that inevitably occurs, is an animal behavioral experiment commonly used to measure antidepressant effects. To confirm the effect of reducing depression by combined administration of D-cycloserine (DCS) and pentoxifylline (Pen), each group of mice was administered orally with the vehicle (DW 5 ml/kg), DCS (administered alone at 10 mg/kg), pentoxifylline (administered alone at 80 mg/kg) and DCS+pentoxifylline (DCS 10 mg/kg and pentoxifylline 10, 20, 80, 160 mg/kg combination treatment group). After administration, the forced swimming test (FST) that measures depression-like behavior was performed on the mice. Specifically, each mice group (C57BL/6) was individually placed in a 3 L Pyrex beaker (13 cm in diameter, 24 cm in height), and the beakers were filled with 26° C. of water up to a depth of 9 cm. All mice were forced to swim for 6 minutes, and immobility time was measured for the last 4 minutes of the experiment. The immobility time is defined as the […] time taken while the mouse is floating without struggling or taking only the movement required for keeping the mouse's head above the water surface.

[2] = test system: mice (C57BL6); test: Tail suspension test (TST); assay type: in vivo, mouse; settings: DCS alone 10 mg/kg, pentoxifylline alone 80 mg/kg, combination DCS 10 mg/kg + pentoxifylline 10, 20, 80, 160 mg/kg, TST 1 hour after administration, immobility time over 6 min
Text: In order to test an effect of reducing depression depending on administration of the composite composition of the present invention, mice were subjected to a tail suspension test (TST). The TST, which is to measure a stress in a rodent animal model, is based on the behavior of an experimental animal facing immobile posture in the face of short-term, irreversible stress. In the technical field of the present invention, the TST is used to measure the effect of antidepressant. To confirm the effect of reducing depression by combined administration of D-cycloserine (DCS) and pentoxifylline (Pen), DCS, Pen alone or a composite composition were administered to all groups of mice (C57BL6). Each group of mice was administered with the vehicle (DW 5 ml/kg), DCS (administered alone at 10 mg/kg), pentoxifylline (administered alone at 80 mg/kg), and DCS+pentoxifylline (DCS 10 mg/kg and pentoxifylline 10, 20, 80, 160 mg/kg combination treatment group). After 1 hour, the tail suspension test (TST) that measures depression-like behavior was performed on the mice. […] The experiment started as soon as the mouse was hung, and the immobility time was measured for 6 minutes after the start of the experiment. […]

Row | SMILES | immobility in FST compared to the control group administered with the vehicle [1] | immobility in TST compared to the control group administered with the vehicle [2]
1 | N[C@@H]1CONC1=O [DCS, D-cycloserine] | did not show significantly different in immobility | did not show statistical significance
2 | CC(=O)CCCCn1c(=O)c2c(ncn2C)n(C)c1=O [pentoxifylline] | did not show significantly different in immobility | did not show statistical significance
